System: patients with seasonal allergic rhinitis (SAR)
Assay: MP 428 two-week randomized double-blind study: Total Nasal Symptom Score (TNSS), change from baseline
Format: in vivo, human
Set-up: key to Change from Baseline in AM TNSS, Mean / Change from Baseline in AM TNSS, LS Mean / Change from Baseline in AM TNSS, Median: TNSS sum of 4 symptoms each 0-3 (0=none, 3=severe); change from baseline
Method: A two-week, randomized, double-blind study, which evaluated the effects of the co-administration of ASTELIN® (azelastine hydrochloride (HCl)) and FLONASE® (fluticasone propionate) compared to either product alone in patients with seasonal allergic rhinitis (SAR) was conducted during the 2006 Texas mountain cedar season. After a 5-day placebo lead-in period, 151 patients with moderate-to-severe allergic rhinitis symptoms were randomized to either: (1) (49 total patients) ASTELIN® (azelastine hydrochloride (HCl)) plus placebo saline nasal spray 2 sprays per nostril, 15 minutes apart, twice daily (AM & PM); (2) (50 total patients) FLONASE® (fluticasone propionate) plus placebo saline nasal spray, 2 sprays per nostril, 15 minutes apart, once daily (AM) and two sessions of placebo saline nasal spray, 2 sprays per nostril, 15 minutes apart (PM); or (3) (52 total patients) the co-administration of ASTELIN® (azelastine hydrochloride (HCl)) 2 sprays per nostril plus FLONASE® (fluticasone propionate) 2 sprays per nostril (AM), 15 minutes apart, and ASTELIN® (azelastine hydrochloride (HCl)) 2 sprays per nostril plus placebo saline nasal spray, 15 minutes apart, (PM) for a 2-week double-blind treatment period.
The primary efficacy variable was the change from baseline in the Total Nasal Symptom Score (TNSS), which comprised sneezing, itchy nose, runny nose, and nasal congestion (individual symptoms scores were assigned a value between 0 and 3, where 0=no symptoms and 3=severe symptoms). This study was not statistically designed to assess the differences between ASTELIN® and FLONASE®.

[1] = Day 5, Intent-to-Treat Population
[2] = Day 6, Intent-to-Treat Population
[3] = Day 7, Intent-to-Treat Population
[4] = Day 8, Intent-to-Treat Population
[5] = Day 9, Intent-to-Treat Population

With `CCC(=O)O[C@]1(C(=O)SCF)[C@H](C)C[C@H]2[C@@H]3C[C@H](F)C4=CC(=O)C=C[C@]4(C)[C@@]3(F)[C@@H](O)C[C@@]21C` [Fluticasone, fluticasone propionate] the “Percent Change from Baseline in AM and PM Combined TNSS, Mean” value [1] was −26.89%, the “Percent Change from Baseline in AM and PM Combined TNSS, Median” value [1] was −22.77% and the “Percent Change from Baseline in PM TNSS, LS Mean” value [1] was −27.51%. For the same molecule, the “Percent Change from Baseline in PM TNSS, Mean” value [1] was −27.06%, the “Percent Change from Baseline in PM TNSS, Median” value [1] was −22.22% and the “Change from Baseline in AM and PM Combined TNSS, LS Mean” value (Day 5, Intent-to-Treat Population, ANCOVA model) was −5.20. For the same molecule, the “Change from Baseline in AM and PM Combined TNSS, LS Mean” value (Day 5, Per-Protocol Population) was −5.23, the “Change from Baseline in AM and PM Combined TNSS, Mean” value (Day 5, Per-Protocol Population) was −5.23 and the “Change from Baseline in AM and PM Combined TNSS, Median” value (Day 5, Per-Protocol Population) was −4.40. For the same molecule, the “Percent Change from Baseline in AM and PM Combined TNSS, LS Mean” value (Day 5, Per-Protocol Population) was −27.42%, the “Percent Change from Baseline in AM and PM Combined TNSS, Mean” value (Day 5, Per-Protocol Population) was −27.16% and the “Percent Change from Baseline in AM and PM Combined TNSS, Median” value (Day 5, Per-Protocol Population) was −22.77%. The “Change from Baseline in AM TNSS, LS Mean” value [2] was −2.59, the “Change from Baseline in AM TNSS, Mean” value [2] was −2.57 and the “Change from Baseline in AM TNSS, Median” value [2] was −2.20. For the same molecule, the “Change from Baseline in AM and PM Combined TNSS, Mean” value [2] was −5.10, the “Change from Baseline in AM and PM Combined TNSS, Median” value [2] was −4.45 and the “Change from Baseline in PM TNSS, LS Mean” value [2] was −2.53. For the same molecule, the “Change from Baseline in PM TNSS, Mean” value [2] was −2.53, the “Change from Baseline in PM TNSS, Median” value [2] was −2.00 and the “Percent Change from Baseline in AM TNSS, LS Mean” value [2] was −27.42%. The “Percent Change from Baseline in AM TNSS, Mean” value [2] was −27.12%, the “Percent Change from Baseline in AM TNSS, Median” value [2] was −23.81% and the “Percent Change from Baseline in AM and PM Combined TNSS, LS Mean” value [2] was −27.15%. For the same molecule, the “Percent Change from Baseline in AM and PM Combined TNSS, Mean” value [2] was −26.90%, the “Percent Change from Baseline in AM and PM Combined TNSS, Median” value [2] was −22.20% and the “Percent Change from Baseline in PM TNSS, LS Mean” value [2] was −26.81%. For the same molecule, the “Percent Change from Baseline in PM TNSS, Mean” value [2] was −26.62%, the “Percent Change from Baseline in PM TNSS, Median” value [2] was −22.22% and the “Change from Baseline in AM and PM Combined TNSS, LS Mean” value (Day 6, Intent-to-Treat Population, ANCOVA model) was −5.12. The “Change from Baseline in AM and PM Combined TNSS, LS Mean” value (Day 6, Per-Protocol Population) was −5.11, the “Change from Baseline in AM and PM Combined TNSS, Mean” value (Day 6, Per-Protocol Population) was −5.12 and the “Change from Baseline in AM and PM Combined TNSS, Median” value (Day 6, Per-Protocol Population) was −4.45. The “Percent Change from Baseline in AM and PM Combined TNSS, LS Mean” value (Day 6, Per-Protocol Population) was −27.15%, the “Percent Change from Baseline in AM and PM Combined TNSS, Mean” value (Day 6, Per-Protocol Population) was −26.95% and the “Percent Change from Baseline in AM and PM Combined TNSS, Median” value (Day 6, Per-Protocol Population) was −22.20%. For the same molecule, the “Change from Baseline in AM TNSS, LS Mean” value [3] was −2.55, the “Change from Baseline in AM TNSS, Mean” value [3] was −2.57 and the “Change from Baseline in AM TNSS, Median” value [3] was −2.00. For the same molecule, the “Change from Baseline in AM and PM Combined TNSS, Mean” value [3] was −5.02, the “Change from Baseline in AM and PM Combined TNSS, Median” value [3] was −5.00 and the “Change from Baseline in PM TNSS, LS Mean” value [3] was −2.50. For the same molecule, the “Change from Baseline in PM TNSS, Mean” value [3] was −2.45, the “Change from Baseline in PM TNSS, Median” value [3] was −2.00 and the “Percent Change from Baseline in AM TNSS, LS Mean” value [3] was −26.16%. For the same molecule, the “Percent Change from Baseline in AM TNSS, Mean” value [3] was −26.29%, the “Percent Change from Baseline in AM TNSS, Median” value [3] was −22.22% and the “Percent Change from Baseline in AM and PM Combined TNSS, LS Mean” value [3] was −26.00%. The “Percent Change from Baseline in AM and PM Combined TNSS, Mean” value [3] was −25.75%, the “Percent Change from Baseline in AM and PM Combined TNSS, Median” value [3] was −23.81% and the “Percent Change from Baseline in PM TNSS, LS Mean” value [3] was −25.72%. The “Percent Change from Baseline in PM TNSS, Mean” value [3] was −25.18%, the “Percent Change from Baseline in PM TNSS, Median” value [3] was −20.45% and the “Change from Baseline in AM and PM Combined TNSS, LS Mean” value (Day 7, Intent-to-Treat Population, ANCOVA model) was −5.06. For the same molecule, the “Change from Baseline in AM and PM Combined TNSS, LS Mean” value (Day 7, Per-Protocol Population) was −4.98, the “Change from Baseline in AM and PM Combined TNSS, Mean” value (Day 7, Per-Protocol Population) was −4.99 and the “Change from Baseline in AM and PM Combined TNSS, Median” value (Day 7, Per-Protocol Population) was −5.00. For the same molecule, the “Percent Change from Baseline in AM and PM Combined TNSS, LS Mean” value (Day 7, Per-Protocol Population) was −25.63%, the “Percent Change from Baseline in AM and PM Combined TNSS, Mean” value (Day 7, Per-Protocol Population) was −25.57% and the “Percent Change from Baseline in AM and PM Combined TNSS, Median” value (Day 7, Per-Protocol Population) was −23.81%. For the same molecule, the “Change from Baseline in AM TNSS, LS Mean” value [4] was −2.40, the “Change from Baseline in AM TNSS, Mean” value [4] was −2.36 and the “Change from Baseline in AM TNSS, Median” value [4] was −1.67. For the same molecule, the “Change from Baseline in AM and PM Combined TNSS, Mean” value [4] was −4.55, the “Change from Baseline in AM and PM Combined TNSS, Median” value [4] was −3.70 and the “Change from Baseline in PM TNSS, LS Mean” value [4] was −2.24. For the same molecule, the “Change from Baseline in PM TNSS, Mean” value [4] was −2.18, the “Change from Baseline in PM TNSS, Median” value [4] was −2.00 and the “Percent Change from Baseline in AM TNSS, LS Mean” value [4] was −25.01%. For the same molecule, the “Percent Change from Baseline in AM TNSS, Mean” value [4] was −24.67%, the “Percent Change from Baseline in AM TNSS, Median” value [4] was −19.23% and the “Percent Change from Baseline in AM and PM Combined TNSS, LS Mean” value [4] was −23.87%. For the same molecule, the “Percent Change from Baseline in AM and PM Combined TNSS, Mean” value [4] was −23.38%, the “Percent Change from Baseline in AM and PM Combined TNSS, Median” value [4] was −20.97% and the “Percent Change from Baseline in PM TNSS, LS Mean” value [4] was −22.44%. The “Percent Change from Baseline in PM TNSS, Mean” value [4] was −21.91%, the “Percent Change from Baseline in PM TNSS, Median” value [4] was −21.95% and the “Change from Baseline in AM and PM Combined TNSS, LS Mean” value (Day 8, Intent-to-Treat Population, ANCOVA model) was −4.64. The “Change from Baseline in AM and PM Combined TNSS, LS Mean” value (Day 8, Per-Protocol Population) was −4.61, the “Change from Baseline in AM and PM Combined TNSS, Mean” value (Day 8, Per-Protocol Population) was −4.59 and the “Change from Baseline in AM and PM Combined TNSS, Median” value (Day 8, Per-Protocol Population) was −3.70. The “Percent Change from Baseline in AM and PM Combined TNSS, LS Mean” value (Day 8, Per-Protocol Population) was −23.68%, the “Percent Change from Baseline in AM and PM Combined TNSS, Mean” value (Day 8, Per-Protocol Population) was −23.43% and the “Percent Change from Baseline in AM and PM Combined TNSS, Median” value (Day 8, Per-Protocol Population) was −20.97%. The “Change from Baseline in AM TNSS, LS Mean” value [5] was −2.43 and the “Change from Baseline in AM TNSS, Mean” value [5] was −2.38.

— patent publication US8758816B2, “Compositions comprising azelastine and methods of use thereof” (priority 2004, dated 2014)
